We go through twelve molecules from patent publication US10143667B2, “Ceramide-like function imparting agent” (KAO CORPORATION, priority 2013, dated 2018).

A short description of data set [1]: Evaluation of lamellar-formation ability (X-ray diffraction). Details: key to Evaluation of X-ray diffraction measurement: wide-angle X-ray measurement: A: diffraction peaks originating from crystals of stearic acid and cholesterol disappeared and only the peaks originating from a lamellar structure were observed near 2θ=22°; B: diffraction peaks originating from crystals of stearic acid and cholesterol remained but peaks originating approximately from a lamellar structure were observed; C: peaks originating from a lamellar structure were observed only partly; D: no peaks originating from a lamellar structure were observed; key to Evaluation of X-ray diffraction measurement: small-angle X-ray measurement: E: diffraction peaks originating from a periodic structure of lamellar structure were observed; F: no diffraction peaks were observed. Particulars: equimolar mixture of stearic acid, cholesterol and sample, 30 wt % ion-exchange water. Format: physicochemical. How it is done:
Evaluation of lamellar-formation ability was conducted according to the method by Mizushima et al. (Lipids, 30(4), 327-332 (1995)).
Each of stearic acid and cholesterol, used as representatives of fatty acids that are horny layer intercellular lipids, as well as a sample to be evaluated was weighed to give an equimolar mixture, and an ion-exchange water was added thereto in an amount of 30 wt % of the weight of the lipids. The mixture was heat-melted and then cooled to give an evaluation sample.
Wide-angle X-ray diffraction apparatus ((PANalytical) X' Pert MRD High Resolution X-ray Diffractometer)
Small-angle X-ray scattering apparatus ((NANO Viewer manufactured by RIGAKU Corporation), Small-angle X-ray scattering)
In the case where the wide-angle X-ray diffraction apparatus was used, sampling for measurement was conducted by finely grinding a sample in an agate mortar and packing the sample in a measurement cell to give a flat surface. In the case of small-angle X-ray scattering apparatus, the sample was packed in a cell made of stainless steel having grid openings of approximately 4 mm in width and 2 mm in depth.
Conditions for wide-angle X-ray diffraction measurement: measurement cell: a cell for exclusive use made of stainless steel, applied voltage: 45 kV, applied current: 40 mA.
measured range: 2θ=3° to 45°, measurement speed: 2θ=1°/min.
Conditions for small-angle X-ray measurement: measurement cell: a sample that was packed in a stainless steel holder having grid openings was measured.
applied voltage: […], applied current: 30 mA, X-ray irradiation period: 30 minutes, measured at a camera length of from 450 to 650 mm using a detector with an imaging plate.
In a wide-angle X-ray diffraction measurement, a symbol A was assigned to a sample wherein diffraction peaks originating from crystals of stearic acid and cholesterol disappeared and only the peaks originating from a lamellar structure were observed near 2θ=22°, a symbol B was assigned to a sample wherein diffraction peaks originating from crystals of stearic acid and cholesterol remained but peaks originating approximately from a lamellar structure were observed, a symbol C was assigned to a sample wherein peaks originating from a lamellar structure were observed only partly, and a symbol D was assigned to a sample wherein no peaks originating from a lamellar structure were observed. In addition, in a small-angle X-ray measurement, a symbol E was assigned to a sample wherein diffraction peaks originating from a periodic structure of lamellar structure were observed, and a symbol F was assigned to a sample wherein no diffraction peaks were observed.

Data set [2] can be described thus: Measurement on bonded water content (differential scan calorimetric analysis). To be noted: equimolar mixture of stearic acid, cholesterol and sample plus ion-exchange water; DSC. In kind it is physicochemical. How it is done: Measurement on bonded water content was conducted according to the method by Akasaki et al. (Fragrance Journal, extra edition, No. 13, pp. 66-67, 1994).
1) Differential scan calorimetric analyzer: (DSC6100 (SII Seiko Instruments Inc.)).
A sample prepared by adding ion-exchange water to an equimolar mixture of stearic acid and cholesterol, both used as representatives of fatty acids that are a horny layer intercellular lipid, and a sample to be evaluated, was encapsulated in a cell, and the water content thereof was measured. The temperature of the sample was raised from −40° C. at a rate of 1° C./minute to obtain an enthalpy change accompanied by the temperature raise. A bonded water content was determined from the relation between a water content of a lipid mixture (an amount of moisture absorbed) and a change of peak of enthalpy (melting heat), and an enthalpy change was obtained from the point 0.

A short description of data set [3]: Evaluation as to occlusion (TEWL-inhibition), lipid-impregnated filter paper. To be noted: filter paper immersed in 10% lipid mixture solution; average of three measurements; versus solvent-only filter. How it is done: Evaluation as to occlusion was conducted according to the method by Akasaki et al. (Fragrance Journal, extra edition, No. 13, p. 65, 1994).
Each of stearic acid and cholesterol, used as representatives of fatty acids that are horny layer intercellular lipids, and a sample to be evaluated was weighed into a screw tube, and a mixed liquid of chloroform and methanol (9:1 by volume) was used to give a 10% solution of the lipid mixture (w/v). A filter paper ([…] Co. Ltd., No. 5C, ϕ=21 mm) was immersed in the 10% solution, and then taken out, dried at room temperature, heated at 90° C. for one hour, hydrated by a water sprayer, heat-treated at 60° C. for 12 hours, and then cooled. The filter thus prepared was set in a vial charged with ion-exchange water (20 ml), and the weight of the filter was measured over time to calculate an amount of TEWL. As a control, was measured an amount of TEWL of a filter which had been immersed only in a mixed liquid of chloroform and methanol (9:1 by volume). A control rate of TEWL (%) was calculated according to the following equation: Control rate of TEWL (%)=(1−amount of TEWL of evaluated sample/amount of TEWL of control)×100. 2) Results

As for “2-(hexadecyl/octadecyl)-N,N,-bis(2-hydroxyethyl)succinamide [Compound 2]”, in data set [1], the “Evaluation of X-ray diffraction measurement: small-angle X-ray measurement” value is “E” and the “Evaluation of X-ray diffraction measurement: wide-angle X-ray measurement” value is reported as “B”.
For `CCCCCCCCCCCCCCCC(=O)NCCO` [Comparative Compound 1, N-(2-hydroxyethyl)palmitamide, reference compound], in that order: “F” and “D”.
Take `CCCCCCCCCCCCC/C=C/CC(CC(=O)NCCCCCCCCCCCCCCCC)C(=O)NCCCCCCCCCCCCCCCC` (centres unmarked) [Comparative Compound 3, (E)-2-(hexadeca-2-en-1-yl)-N,N,-dihexadecylsuccinamide, reference compound]: in data set [1], the “Evaluation of X-ray diffraction measurement: small-angle X-ray measurement” value was “F” and the “Evaluation of X-ray diffraction measurement: wide-angle X-ray measurement” value was “D”.
Consider `CCCCCCCCCCCCCCCCOCC(O)CN(CCO)C(=O)CCCCCCCCCCCCCCC` (centres unmarked) [Sphingolipid E, reference compound], for which the Bonded water content in data set [2] is 7.1 % by mass. The TEWL inhibition rate in data set [3] worked out at 32.8%. Also, in data set [1], the “Evaluation of X-ray diffraction measurement: small-angle X-ray measurement” value is “E” and the “Evaluation of X-ray diffraction measurement: wide-angle X-ray measurement” value is on record as “A”.
As for “(E)-2-(eicosa/docosa/tetracosa)-2-en-1-yl)-N,N,-bis(2-hydroxyethyl)succinamide [Compound 5]”, in data set [1], the “Evaluation of X-ray diffraction measurement: small-angle X-ray measurement” value is reported as “E” and the “Evaluation of X-ray diffraction measurement: wide-angle X-ray measurement” value is “A”.
Turning to “(E)-2-(hexadeca/octadeca)-2-en-1-yl)-N,N,-bis(1-hydroxypropan-2-yl)succinamide [Compound 4]”, in data set [1], the “Evaluation of X-ray diffraction measurement: small-angle X-ray measurement” value was “E” and the “Evaluation of X-ray diffraction measurement: wide-angle X-ray measurement” value is “C”.
Regarding “(E)-2-(hexadeca/octadeca)-2-en-1-yl)-N,N,-bis(2-(2-hydroxy-ethoxy)ethyl)succinamide [Comparative Compound 2, reference compound]”, the TEWL inhibition rate in data set [3] is on record as 24.2%. Further, in data set [1], the “Evaluation of X-ray diffraction measurement: small-angle X-ray measurement” value was “F” and the “Evaluation of X-ray diffraction measurement: wide-angle X-ray measurement” value is reported as “D”.
Take “(E)-2-(hexadeca/octadeca)-2-en-1-yl)-N,N,-bis(2-hydroxyethyl)succinamide [Compound 1]”: in data set [1], the “Evaluation of X-ray diffraction measurement: small-angle X-ray measurement” value is “E” and the “Evaluation of X-ray diffraction measurement: wide-angle X-ray measurement” value is recorded as “B”.
Consider “(E)-2-(hexadeca/octadeca)-2-en-1-yl)-N-hexadecyl-N-(2-hydroxyethyl)succinamide [Comparative compound 4]”, for which the TEWL inhibition rate in data set [3] was found to be 27.4%.
Consider “(E)-N,N,-bis(1,3-dihydroxy-2-(hydroxymethyl)propan-2-yl)-2-((hexadeca/octadeca)-2-en-1-yl)-succinamide [Compound 7]”, for which, in data set [1], the “Evaluation of X-ray diffraction measurement: small-angle X-ray measurement” value is “E” and the “Evaluation of X-ray diffraction measurement: wide-angle X-ray measurement” value is “A”.
For the molecule “(E)-N,N,-bis(1,3-dihydroxy-2-methylpropan-2-yl)-2-((hexadeca/octadeca)-2-en-1-yl)-succinamide [Compound 6]”, in data set [1], the “Evaluation of X-ray diffraction measurement: small-angle X-ray measurement” value is listed as “E” and the “Evaluation of X-ray diffraction measurement: wide-angle X-ray measurement” value is recorded as “B”.
Turning to “(E)-N,N,-bis(3-hydroxypropyl)-2-((hexadeca/octadeca)-2-en-1-yl)-succinamide [Compound 3]”, in data set [1], the “Evaluation of X-ray diffraction measurement: small-angle X-ray measurement” value is on record as “E” and the “Evaluation of X-ray diffraction measurement: wide-angle X-ray measurement” value is recorded as “C”.
